Legend:
Format in all cases: in vivo
[1] = test system: Wild Buckwheat; experiment: Pre-emergent herbicidal test; details: 4 WAT; also: ranges in brackets are in %
Procedure: (§1) The pre-emergent test was conducted as follows:
(§2) A good grade of top soil was placed in aluminum pans and compacted to a depth of three-eighths to one-half inch from the top of the pan. On the top of the soil was placed a predetermined number of seeds or vegetative propagules of various plant species which were pressed into the soil surface. The soil required to level fill the pans after seeding or adding vegetative propagules was weighed into a pan. A known amount of the active ingredient applied in a solvent or as a wettable powder and the soil were thoroughly mixed, and used as a cover layer for prepared pans.
(§3) The herbicidal rating was obtained by means of a fixed scale based on the percent injury of each plant species. The ratings are defined as follows: […]

[2] = test system: Rice; experiment: Pre-emergent herbicidal test; details: 4 WAT; also: ranges in brackets are in %
Procedure: as §1, §2, §3

[3] = test system: Wheat; experiment: Pre-emergent herbicidal test; details: 4 WAT; also: ranges in brackets are in %
Procedure: as §1, §2, §3

[4] = test system: Panicum Spp.; experiment: Pre-emergent herbicidal test; details: 4 WAT; also: ranges in brackets are in %
Procedure: as §1, §2, §3

[5] = test system: Crabgrass; experiment: Pre-emergent herbicidal test; details: 4 WAT; also: ranges in brackets are in %
Procedure: as §1, §2, §3

[6] = test system: Hemp Sesbania; experiment: Pre-emergent herbicidal test; details: 4 WAT; also: ranges in brackets are in %
Procedure: as §1, §2, §3

[7] = test system: Soybean; experiment: Pre-emergent herbicidal test; details: 4 WAT; also: ranges in brackets are in %
Procedure: as §1, §2, §3

[8] = test system: Sugarbeet; experiment: Pre-emergent herbicidal test; details: 4 WAT; also: ranges in brackets are in %
Procedure: as §1, §2, §3

[9] = test system: Sorghum; experiment: Pre-emergent herbicidal test; details: 4 WAT; also: ranges in brackets are in %
Procedure: as §1, §2, §3

[10] = test system: Cocklebur; experiment: Post-emergent herbicidal test; details: 4 WAT; also: ranges in brackets are in %
Procedure: (§4) The post-emergent tests were conducted as follows:
(§5) The active ingredients are applied in spray form to two or three week old specimens of various plant species. The spray, a solution or wettable powder suspension containing the appropriate rate of active ingredient to give the desired test rate and a surfactant, is applied to the plants.
(§6) The compounds were also tested by utilizing the above procedure on the following plant species: […]

[11] = test system: Morningglory; experiment: Post-emergent herbicidal test; details: 4 WAT; also: ranges in brackets are in %
Procedure: as §4, §5, §6

[12] = test system: Barnyardgrass; experiment: Post-emergent herbicidal test; details: 4 WAT; also: ranges in brackets are in %
Procedure: as §4, §5, §6

[13] = test system: Downy Brome; experiment: Post-emergent herbicidal test; details: 4 WAT; also: ranges in brackets are in %
Procedure: as §4, §5, §6

[14] = test system: Quackgrass; experiment: Post-emergent herbicidal test; details: 4 WAT, 11.2 kg/h; also: ranges in brackets are in %
Procedure: as §4, §5, §6

[15] = test system: Johnsongrass; experiment: Post-emergent herbicidal test; details: 4 WAT, 11.2 kg/h; also: ranges in brackets are in %
Procedure: as §4, §5, §6

[16] = test system: Lambsquarters; experiment: Post-emergent herbicidal test; details: 4 WAT; also: ranges in brackets are in %
Procedure: as §4, §5, §6

[17] = test system: Canada Thistle; experiment: Post-emergent herbicidal test; details: 4 WAT, 11.2 kg/h; also: ranges in brackets are in %
Procedure: as §4, §5, §6

[18] = test system: Yellow Nutsedge; experiment: Post-emergent herbicidal test; details: 4 WAT, 11.2 kg/h; also: ranges in brackets are in %
Procedure: as §4, §5, §6

[19] = test system: Velvetleaf; experiment: Post-emergent herbicidal test; details: 4 WAT; also: ranges in brackets are in %
Procedure: as §4, §5, §6

[20] = test system: Smartweed; experiment: Post-emergent herbicidal test; details: 4 WAT; also: ranges in brackets are in %
Procedure: as §4, §5, §6

[21] = test system: Wild Buckwheat; experiment: Post-emergent herbicidal test; details: 4 WAT; also: ranges in brackets are in %
Procedure: as §4, §5

[22] = test system: Rice; experiment: Post-emergent herbicidal test; details: 4 WAT; also: ranges in brackets are in %
Procedure: as §4, §5

[23] = test system: Wheat; experiment: Post-emergent herbicidal test; details: 4 WAT; also: ranges in brackets are in %
Procedure: as §4, §5

[24] = test system: Panicum Spp.; experiment: Post-emergent herbicidal test; details: 4 WAT; also: ranges in brackets are in %
Procedure: as §4, §5

[25] = test system: Crabgrass; experiment: Post-emergent herbicidal test; details: 4 WAT; also: ranges in brackets are in %
Procedure: as §4, §5

[26] = test system: Hemp Sesbania; experiment: Post-emergent herbicidal test; details: 4 WAT; also: ranges in brackets are in %
Procedure: as §4, §5

[27] = test system: Soybean; experiment: Post-emergent herbicidal test; details: 4 WAT; also: ranges in brackets are in %
Procedure: as §4, §5

[28] = test system: Sugarbeet; experiment: Post-emergent herbicidal test; details: 4 WAT; also: ranges in brackets are in %
Procedure: as §4, §5

[29] = test system: Sorghum; experiment: Post-emergent herbicidal test; details: 4 WAT; also: ranges in brackets are in %
Procedure: as §4, §5

[30] = test system: corn; experiment: Growth regulation of corn (dipping); details: 1330 ppm
[31] = test system: Cocklebur; experiment: Pre-emergent herbicidal test; details: 4 WAT; also: ranges in brackets are in %
Procedure: as §1, §2, §3, §6

[32] = test system: Morningglory; experiment: Pre-emergent herbicidal test; details: 4 WAT; also: ranges in brackets are in %
Procedure: as §1, §2, §3, §6

[33] = test system: Barnyardgrass; experiment: Pre-emergent herbicidal test; details: 4 WAT; also: ranges in brackets are in %
Procedure: as §1, §2, §3, §6

[34] = test system: Downy Brome; experiment: Pre-emergent herbicidal test; details: 4 WAT; also: ranges in brackets are in %
Procedure: as §1, §2, §3, §6

[35] = test system: Quackgrass; experiment: Pre-emergent herbicidal test; details: 4 WAT, 11.2 kg/h; also: ranges in brackets are in %
Procedure: as §1, §2, §3, §6

[36] = test system: Johnsongrass; experiment: Pre-emergent herbicidal test; details: 4 WAT, 11.2 kg/h; also: ranges in brackets are in %
Procedure: as §1, §2, §3, §6

[37] = test system: Lambsquarters; experiment: Pre-emergent herbicidal test; details: 4 WAT; also: ranges in brackets are in %
Procedure: as §1, §2, §3, §6

[38] = test system: Canada Thistle; experiment: Pre-emergent herbicidal test; details: 4 WAT, 11.2 kg/h; also: ranges in brackets are in %
Procedure: as §1, §2, §3, §6

[39] = test system: Yellow Nutsedge; experiment: Pre-emergent herbicidal test; details: 4 WAT, 11.2 kg/h; also: ranges in brackets are in %
Procedure: as §1, §2, §3, §6

[40] = test system: Velvetleaf; experiment: Pre-emergent herbicidal test; details: 4 WAT; also: ranges in brackets are in %
Procedure: as §1, §2, §3, §6

[41] = test system: Smartweed; experiment: Pre-emergent herbicidal test; details: 4 WAT; also: ranges in brackets are in %
Procedure: as §1, §2, §3, §6

## Ethyl 2-[3-[3-(Trifluoromethyl)Phenyl]-5-Isoxazolyl]Benzoate [Example 4]
[1]; 1.12 kg/h
  herbicidal rating: 2 (50-74)
[1]; 5.60 kg/h
  herbicidal rating: 2 (50-74)
[2]; 1.12 kg/h
  herbicidal rating: 3 (75-100)
[2]; 5.60 kg/h
  herbicidal rating: 3 (75-100)
[3]; 1.12 kg/h
  herbicidal rating: 0 (0-24)
[3]; 5.60 kg/h
  herbicidal rating: 1 (25-49)
[4]; 1.12 kg/h
  herbicidal rating: 2 (50-74)
[4]; 5.60 kg/h
  herbicidal rating: 3 (75-100)
[5]; 1.12 kg/h
  herbicidal rating: 1 (25-49)
[5]; 5.60 kg/h
  herbicidal rating: 3 (75-100)
[6]; 1.12 kg/h
  herbicidal rating: 1 (25-49)
[6]; 5.60 kg/h
  herbicidal rating: 2 (50-74)
[7]; 1.12 kg/h
  herbicidal rating: 1 (25-49)
[7]; 5.60 kg/h
  herbicidal rating: 3 (75-100)
[8]; 1.12 kg/h
  herbicidal rating: 1 (25-49)
[8]; 5.60 kg/h
  herbicidal rating: 2 (50-74)
[9]; 1.12 kg/h
  herbicidal rating: 2 (50-74)
[9]; 5.60 kg/h
  herbicidal rating: 3 (75-100)
[10]; 1.12 kg/h
  herbicidal rating: 2 (50-74)
[10]; 5.60 kg/h
  herbicidal rating: 2 (50-74)
[10]; 11.2 kg/h
  herbicidal rating: 1 (25-49)
[11]; 1.12 kg/h
  herbicidal rating: 2 (50-74)
[11]; 5.60 kg/h
  herbicidal rating: 2 (50-74)
[11]; 11.2 kg/h
  herbicidal rating: 2 (50-74)
[12]; 1.12 kg/h
  herbicidal rating: 2 (50-74)
[12]; 5.60 kg/h
  herbicidal rating: 3 (75-99)
[12]; 11.2 kg/h
  herbicidal rating: 3 (75-99)
[13]; 1.12 kg/h
  herbicidal rating: 0 (0-24)
[13]; 5.60 kg/h
  herbicidal rating: 0 (0-24)
[13]; 11.2 kg/h
  herbicidal rating: 0 (0-24)
[14]
  herbicidal rating: 1 (25-49)
[15]
  herbicidal rating: 1 (25-49)
[16]; 1.12 kg/h
  herbicidal rating: 1 (25-49)
[16]; 5.60 kg/h
  herbicidal rating: 2 (50-74)
[16]; 11.2 kg/h
  herbicidal rating: 3 (75-99)
[17]
  herbicidal rating: 2 (50-74)
[18]
  herbicidal rating: 1 (25-49)
[19]; 1.12 kg/h
  herbicidal rating: 2 (50-74)
[19]; 5.60 kg/h
  herbicidal rating: 1 (25-49)
[19]; 11.2 kg/h
  herbicidal rating: 2 (50-74)
[20]; 1.12 kg/h
  herbicidal rating: 2 (50-74)
[20]; 5.60 kg/h
  herbicidal rating: 4 (100)
[20]; 11.2 kg/h
  herbicidal rating: 2 (50-74)
[21]; 1.12 kg/h
  herbicidal rating: 2 (50-74)
[21]; 5.60 kg/h
  herbicidal rating: 2 (50-74)
[22]; 1.12 kg/h
  herbicidal rating: 1 (25-49)
[22]; 5.60 kg/h
  herbicidal rating: 1 (25-49)
[23]; 1.12 kg/h
  herbicidal rating: 0 (0-24)
[23]; 5.60 kg/h
  herbicidal rating: 1 (25-49)
[24]; 1.12 kg/h
  herbicidal rating: 0 (0-24)
[24]; 5.60 kg/h
  herbicidal rating: 1 (25-49)
[25]; 1.12 kg/h
  herbicidal rating: 1 (25-49)
[25]; 5.60 kg/h
  herbicidal rating: 2 (50-74)
[26]; 1.12 kg/h
  herbicidal rating: 2 (50-74)
[26]; 5.60 kg/h
  herbicidal rating: 2 (50-74)
[27]; 1.12 kg/h
  herbicidal rating: 2 (50-74)
[27]; 5.60 kg/h
  herbicidal rating: 2 (50-74)
[28]; 1.12 kg/h
  herbicidal rating: 1 (25-49)
[28]; 5.60 kg/h
  herbicidal rating: 2 (50-74)
[29]; 1.12 kg/h
  herbicidal rating: 1 (25-49)
[29]; 5.60 kg/h
  herbicidal rating: 2 (50-74)
[30]
  Observations: reduction in stature and "buggy whipping" of the leaves
[31]; 1.12 kg/h
  herbicidal rating: 0 (0-24)
[31]; 5.60 kg/h
  herbicidal rating: 1 (25-49)
[31]; 11.2 kg/h
  herbicidal rating: 1 (25-49)
[32]; 1.12 kg/h
  herbicidal rating: 2 (50-74)
[32]; 5.60 kg/h
  herbicidal rating: 3 (75-100)
[32]; 11.2 kg/h
  herbicidal rating: 2 (50-74)
[33]; 1.12 kg/h
  herbicidal rating: 3 (75-100)
[33]; 5.60 kg/h
  herbicidal rating: 3 (75-100)
[33]; 11.2 kg/h
  herbicidal rating: 3 (75-100)
[34]; 1.12 kg/h
  herbicidal rating: 1 (25-49)
[34]; 5.60 kg/h
  herbicidal rating: 2 (50-74)
[34]; 11.2 kg/h
  herbicidal rating: 2 (50-74)
[35]
  herbicidal rating: 2 (50-74)
[36]
  herbicidal rating: 0 (0-24)
[37]; 1.12 kg/h
  herbicidal rating: 3 (75-100)
[37]; 5.60 kg/h
  herbicidal rating: 2 (50-74)
[37]; 11.2 kg/h
  herbicidal rating: 2 (50-74)
[38]
  herbicidal rating: 2 (50-74)
[39]
  herbicidal rating: 0 (0-24)
[40]; 1.12 kg/h
  herbicidal rating: 0 (0-24)
[40]; 5.60 kg/h
  herbicidal rating: 1 (25-49)
[40]; 11.2 kg/h
  herbicidal rating: 2 (50-74)
[41]; 1.12 kg/h
  herbicidal rating: 3 (75-100)
[41]; 5.60 kg/h
  herbicidal rating: 3 (75-100)
[41]; 11.2 kg/h
  herbicidal rating: 2 (50-74)
